Laboratory results: PMC12467382, “Synthesis and Bioevaluation of Chalcones as Broad-Spectrum Antiviral Compounds Against Single-Stranded RNA Viruses” (Biomolecules, 2025)

Columns and labels:
LACV = LACV Gc protein expression in Hs27 cells by flow cytometry; format: cell-based, La Crosse Virus; conditions: MOI 10, 24 hpi; for Cells expressing LACV glycoprotein Gc: 10 µM before and after infection, DMSO ~60%
Method: La Crosse Virus (LACV) was kindly provided by Andrew Pekosz (Johns Hopkins Bloomberg School of Public Health, Baltimore, MD, USA), grown at 28 °C in C6/36 cells derived from the larvae of the Asian tiger mosquito (ATCC), and titered at 37 °C on Vero cells as previously described. Infections were carried out in DMEM containing 2% HI FBS for 1 h or mock infected with media alone. Cells were washed with PBS and cultured in DMEM containing 2% HI FBS.
(§1) For cytotoxicity assays, cells were stained with propidium iodide (PI) at a dilution of 1:100. Cell viability was determined via flow cytometry using the CytoFLEX (Beckman Coulter, Brea, CA, USA). CytExpert software (Beckman Coulter, version 2.4) was used to analyze independent events. PIV5 infection was monitored using flow cytometry via the FITC channel by analyzing GFP expression of individual cells. ZIKV infection was monitored utilizing Flavivirus group antigen–antibody (D1-4G2-4-15; Novus Biologicals, Littleton, CO, USA) staining for the ZIKV envelope protein. Cells were fixed and permeabilized using eBioscience Intracellular Fixation and Permeabilization Buffer (Invitrogen, Thermo Fisher Scientific, MA, USA) according to the manufacturer’s instructions. Secondary staining was performed using an anti-Alexa Fluor 488 (AF488) antibody (Invitrogen, Thermo Fisher Scientific, MA, USA). OC43 infection was monitored utilizing a primary antibody targeted toward the OC43 nucleocapsid protein (NP, MAB9013, Sigma-Aldrich, St. Louis, MO, USA). Secondary staining was performed using an AF488 antibody. Cells were fixed and permeabilized as previously described. LACV infection was monitored utilizing an anti-LACV Gc 807.31ab antibody kindly provided by Andrew Pekosv. Secondary staining was performed using an AF488 antibody. Cells were fixed and permeabilized as previously described.
(§2) To expand these findings, we evaluated whether these top-performing chalcones inhibited the replication of other RNA viruses. […]

ZIKV = ZIKV envelope (E) protein expression in Hs27 cells by flow cytometry; format: cell-based, Zika Virus; conditions: MOI 5, 24 hpi; for Cells expressing ZIKV envelope (E) protein: 10 µM before and after infection, DMSO 15%
Method: The MR766 strain of Zika Virus (ZIKV) (ATCC-VR84, Manassas, VA, USA) was grown and titered at 37 °C using Vero cells as previously described. Infections were carried out in DMEM containing 10% BSA for 1 h. Cells were then washed with PBS and cultured in DMEM containing 10% HI FBS.
as §1
To expand these findings, we evaluated whether these top-performing chalcones inhibited the replication of other RNA viruses. Briefly described, Hs27 cells were left untreated, treated with DMSO as a control, or treated with the chalcones 8a, 8o, or 8p at 10 μM for 24 h. Cells were then infected with the Bunyavirus LACV, the Flavivirus ZIKV, or the Coronavirus OC43 at high MOIs, as listed in Figure 10. […]

OC43 = test: Coronavirus OC43 NP protein expression in Hs27 cells by flow cytometry; format: cell-based, Human Coronavirus OC43; conditions: MOI 50, 24 hpi; for Cells expressing OC43 NP protein: 10 µM before and after infection, DMSO ~65%
Method: Human Coronavirus OC43 (ATCC, catalog number VR-1558) was grown in a human colorectal adenocarcinoma cell line (HCT-8; ATCC, Manassas, Virginia, catalog #CCL-244) at 33 °C as previously described. OC43 titers were determined at 33 °C via 50% Tissue Culture Infectious Dose assays (TCID50) on confluent human rhabdomyosarcoma (RD; ATCC, Manassas, Virginia, catalog # CCL-136) cells in 96-well plates as previously described. Infections were carried out in DMEM containing 10% BSA for 1 h at 33 °C. Cells were then washed with PBS, cultured in DMEM supplemented with 2% HI FBS, and incubated at 33 °C.
For cytotoxicity assays, cells were stained with propidium iodide (PI) at a dilution of 1:100. Cell viability was determined via flow cytometry using the CytoFLEX (Beckman Coulter, Brea, CA, USA). CytExpert software (Beckman Coulter, version 2.4) was used to analyze independent events. PIV5 infection was monitored using flow cytometry via the FITC channel by analyzing GFP expression of individual cells. ZIKV infection was monitored utilizing Flavivirus group antigen–antibody (D1-4G2-4-15; Novus Biologicals, Littleton, CO, USA) staining for the ZIKV envelope protein. Cells were fixed and permeabilized using eBioscience Intracellular Fixation and Permeabilization Buffer (Invitrogen, Thermo Fisher Scientific, MA, USA) according to the manufacturer’s instructions. Secondary staining was performed using an anti-Alexa Fluor 488 (AF488) antibody (Invitrogen, Thermo Fisher Scientific, MA, USA). OC43 infection was monitored utilizing a primary antibody targeted toward the OC43 nucleocapsid protein (NP, MAB9013, Sigma-Aldrich, St. Louis, MO, USA). Secondary staining was performed using an AF488 antibody. Cells were fixed and permeabilized as previously described. LACV infection was monitored utilizing an anti-LACV Gc 807.31ab antibody kindly provided by Andrew Pekosv. Secondary staining was performed using an AF488 antibody. […]
as §2

PIV5-GFP [1] = test: RT-qPCR of PIV5 genes (F, HN, NP) in infected Hs27 cells; format: cell-based, parainfluenza virus 5; conditions: 10 µM before and after infection, MOI 10, normalized to actin
Method: Hs27 cells cultured in 6-well dishes were collected in TRIzol® (Invitrogen) followed by RNA extraction. To produce cDNA, 1 μg of total RNA was used with TaqMan® Reverse Transcription Reagents (Applied Biosystems, Foster City, CA, USA) as described in the manufacturer’s instructions. Quantitative real-time PCR was performed using Bio-Rad CFX Connect Real-Time (Bio-Rad, Hercules, CA, USA) and Fast SYBR® FAST Green Master Mix (Applied Biosystems, Foster City, CA, USA). Relative gene expression was determined using CFX Manager Software (Bio-Rad, version 2.3) and the following primers (Table 1).
To better understand how the chalcones were inhibiting virus growth, RT-qPCR was utilized to determine the effect of chalcone treatment on viral gene expression. Hs27 cells were treated with DMSO as a control or treated with 8o at a concentration of 10 µM. At 24 hpt, cells were mock infected or infected with PIV5-GFP at a high MOI and immediately replaced with media supplemented with 8o. Total RNA was collected at 2, 5, and 10 hpi and used in RT-qPCR assays to measure levels of the PIV5 genes: fusion (F) protein, hemagglutinin-neuraminidase (HN) protein, and nucleocapsid (NP) protein. Collection at various time points allows one to kinetically distinguish between the chalcone-mediated inhibition of early and late viral gene expression. Values were normalized to actin and were set relative to the DMSO-treated control of each corresponding time point.

PIV5-GFP [2] = test: Western blotting for PIV5 NP and P proteins in infected Hs27 cells; format: cell-based, parainfluenza virus 5; conditions: 10 µM before and after infection; high MOI; lysates at 24 hpi
Text: Hs27 (human skin fibroblast) cells cultured in 6-well dishes were lysed using protein lysis buffer. Cell lysates were resolved on 12% sodium dodecyl sulfate-polyacrylamide gel electrophoresis (SDS-PAGE) gels and transferred to nitrocellulose membranes (Bio-Rad, Hercules, CA, USA). After normalizing samples via western blotting for β-actin (1:20,000 dilution, catalog number A5316, Sigma-Aldrich, St. Louis, MO, USA), samples were probed with rabbit polyclonal antibodies for the PIV5 NP (1:2000) and P proteins (1:2000). Blots were visualized using anti-mouse horseradish peroxidase (HRP)-conjugated antibodies (Sigma-Aldrich) and chemiluminescence (Thermo Fisher Scientific).
The above experiments utilized GFP expression and flow cytometry as an assay for observing the effects of chalcones on viral protein expression. To extend this analysis to bona fide viral proteins, cells were left untreated, DMSO-treated, or treated with the chalcone 8o at 10 μM for 24 h. Cells were then infected with PIV5-GFP at a high MOI and then cultured in control media or media supplemented with 8o.

[3] = system: human cytomegalovirus (HCMV); parameters: method as in PMID 23768434; conditions: cited from earlier work
[4] = system: human immunodeficiency virus (HIV); parameters: method as in PMID 27161874; conditions: cited from earlier work

SMILES	Cells expressing LACV glycoprotein Gc (LACV)	Cells expressing ZIKV envelope (E) protein (ZIKV)	Cells expressing OC43 NP protein (OC43)	Viral gene expression (F, HN, NP) vs DMSO-treated control at 2 hpi (PIV5-GFP [1])	Reduction in viral gene expression at 5 hpi (PIV5-GFP [1]; relative to DMSO)	Reduction in viral gene expression at 10 hpi (PIV5-GFP [1]; relative to DMSO)	PIV5 NP and P viral protein levels (PIV5-GFP [2])	Antiviral activity against HCMV [3]	Antiviral activity against HIV [4]	Inhibition of viral gene expression, LACV (LACV; 10 µM)	Inhibition of viral gene expression, ZIKV (ZIKV; 10 µM)	Effect on OC43 NP expression (OC43; 10 µM)
CCOc1ccc(Cl)cc1/C=C/C(=O)c1c(O)cccc1OCc1ccccc1 [Chalcone 8p]	below 10%	~ 2%	1-2%	–	–	–	–	–	–	–	–	–
CCOc1ccc(Br)cc1/C=C/C(=O)c1c(O)cccc1OCc1ccccc1 [Chalcone 8o]	below 10%	~ 2%	1-2%	minimal differences	~ 5 fold	greater than 100 fold	very little viral protein	had efficacy as an antiviral agent	had efficacy as an antiviral agent	–	–	–
COc1ccccc1/C=C/C(=O)c1ccccc1O [Chalcone 8a]	–	–	–	–	–	–	–	–	–	did not inhibit viral gene expression	did not inhibit viral gene expression	significant inhibitory effects
